These results are taken from US10710993B2, “Benzofuran pyrazole amine kinase inhibitor” (Hangzhou REX Pharmaceutical Co., LTD., priority 2016, dated 2020).

The target in one experiment is T1, TEL-ALK-F1174L-BaF3 (Homo sapiens, UniProt Q9UM73, F1174L, cells depend on it).
T1 construct: fused on or other part: TEL (ETV6) N-terminal oligomerising part fused before the ALK intracellular/kinase part; P41212 (Transcription factor ETV6)
In words: Cell proliferation experiment (Cell-Titer GLO), TEL-ALK-F1174L-BaF3. The class given is cell-based. Particulars: 72 h, read-out: IC50 TEL-ALK F1174L-BaF3. Here is the method:
(§1) Compounds to be tested: Positive compound Ceritinib and the compounds obtained by the examples of the present invention.
(§2) Cell lines: Karpas-299 and NCI-H3122 which were purchased from the Nanjing kebai biotechnology Co. LTD; TEL-ALK-F1174L-BaF3, TEL-ALK-G1202R-BaF3, TEL-ALK-C1156Y-BaF3 and TEL-ALK-L1196M-BaF3 which were purchased from Hefei zhongkopruisheng biological medicine technology Co. LTD.
(§3) Method: Cells were seeded in 96-well plates for 24 h in growth media containing 10% fetalbovine serum (FBS) and cultured overnight at 37° C. The following day, serial dilutions of compounds or appropriate control were added to the designated wells, and cells were incubated at 37° C. for 72 h. A Cell Titer Glo assay (Promega) was then performed to determine the relative cell numbers. IC50 values were calculated by concentration-response curve fitting using a four-parameter analytical method with Graphpad 6.0. Drug inhibition rate (%)=100%−[OD(Compound)−OD(blank)]/[OD(vehicle)−OD(blank)]×100% Equation: […]

For the next experiment, the target named is T2, TEL-ALK-G1202R-BaF3 (Homo sapiens, UniProt Q9UM73, G1202R, cells depend on it).
T2 construct: fused on or other part: TEL (ETV6) N-terminal oligomerising part fused before the ALK intracellular/kinase part; P41212 (Transcription factor ETV6)
The experiment can be described thus: Cell proliferation experiment (Cell-Titer GLO), TEL-ALK-G1202R-BaF3. The class given is cell-based. The note with it: 72 h, read-out: IC50 TEL-ALK G1202R-BaF3. Here is the method:
as §1, §2, §3

T1 sequence (Q9UM73 whole entry F1174L, the tested form may be a part): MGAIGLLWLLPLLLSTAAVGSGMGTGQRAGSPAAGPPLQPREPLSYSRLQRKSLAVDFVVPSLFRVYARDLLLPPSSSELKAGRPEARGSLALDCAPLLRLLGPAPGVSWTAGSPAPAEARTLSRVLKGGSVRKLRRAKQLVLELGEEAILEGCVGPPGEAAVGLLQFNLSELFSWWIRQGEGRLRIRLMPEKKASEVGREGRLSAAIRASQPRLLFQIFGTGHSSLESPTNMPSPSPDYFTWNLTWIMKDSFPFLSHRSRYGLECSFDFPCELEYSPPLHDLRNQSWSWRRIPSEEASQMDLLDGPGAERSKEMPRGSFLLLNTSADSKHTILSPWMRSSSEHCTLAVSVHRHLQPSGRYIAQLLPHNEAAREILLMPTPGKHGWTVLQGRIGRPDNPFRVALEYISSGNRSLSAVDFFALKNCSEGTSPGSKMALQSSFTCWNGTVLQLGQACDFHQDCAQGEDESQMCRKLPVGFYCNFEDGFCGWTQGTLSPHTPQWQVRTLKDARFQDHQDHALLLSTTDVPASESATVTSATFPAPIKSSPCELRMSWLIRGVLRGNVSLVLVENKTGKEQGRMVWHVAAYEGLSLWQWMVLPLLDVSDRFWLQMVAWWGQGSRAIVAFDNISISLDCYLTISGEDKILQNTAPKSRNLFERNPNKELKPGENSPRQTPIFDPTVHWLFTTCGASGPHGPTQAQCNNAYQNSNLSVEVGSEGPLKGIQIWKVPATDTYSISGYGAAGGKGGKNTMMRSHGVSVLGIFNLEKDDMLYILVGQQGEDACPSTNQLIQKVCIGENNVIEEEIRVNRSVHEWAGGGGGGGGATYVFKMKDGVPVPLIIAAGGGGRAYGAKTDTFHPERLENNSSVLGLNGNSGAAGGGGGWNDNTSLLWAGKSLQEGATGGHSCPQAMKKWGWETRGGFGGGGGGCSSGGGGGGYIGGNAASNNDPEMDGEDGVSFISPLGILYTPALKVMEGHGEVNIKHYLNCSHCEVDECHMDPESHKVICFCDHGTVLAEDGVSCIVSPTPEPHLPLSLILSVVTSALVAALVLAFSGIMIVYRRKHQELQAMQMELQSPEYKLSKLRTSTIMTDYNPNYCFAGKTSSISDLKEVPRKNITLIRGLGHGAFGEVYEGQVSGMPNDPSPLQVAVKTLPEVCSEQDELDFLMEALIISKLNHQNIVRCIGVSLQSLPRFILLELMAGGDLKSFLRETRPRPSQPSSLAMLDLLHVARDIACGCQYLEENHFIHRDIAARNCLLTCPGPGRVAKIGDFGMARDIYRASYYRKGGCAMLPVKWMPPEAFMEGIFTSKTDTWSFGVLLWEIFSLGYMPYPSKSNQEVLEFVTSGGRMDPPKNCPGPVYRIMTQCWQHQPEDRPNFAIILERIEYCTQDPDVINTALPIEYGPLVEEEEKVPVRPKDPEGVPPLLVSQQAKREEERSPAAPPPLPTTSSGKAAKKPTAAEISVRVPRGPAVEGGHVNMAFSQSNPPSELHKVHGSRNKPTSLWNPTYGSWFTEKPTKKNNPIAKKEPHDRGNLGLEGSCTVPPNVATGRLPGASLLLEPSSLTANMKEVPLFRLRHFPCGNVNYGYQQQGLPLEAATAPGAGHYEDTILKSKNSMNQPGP
T2 sequence (Q9UM73 whole entry G1202R, the tested form may be a part): as the sequence (Q9UM73 whole entry F1174L, the tested form may be a part) above, with L1174F, G1202R counted along it

Regarding `CC(C)S(=O)(=O)c1nn(C)cc1Nc1nc(Nc2cc(F)c(C3CCN(C)CC3)c3c2O[C@H](C)C3)ncc1C(F)(F)F` [REX-D8, (R)—N^2-(5-fluoro-2-methyl-4-(1-methylpiperidin-4-yl)-2,3-dihydrobenzofuran-7-yl)-N^4-(3-(isopropylsulfonyl)-1-methyl-1H-pyrazol-4-yl)-5-(trifluoromethyl)pyrimidine-2,4-diamine], the GI50 was 11.4 nM at TEL-ALK-F1174L-BaF3 and above 180 nM on TEL-ALK-G1202R-BaF3.
Turning to `CC(C)S(=O)(=O)c1nn(C)cc1Nc1nc(Nc2cc(F)c(C3CCNCC3)c3c2O[C@H](C)C3)ncc1Cl` [REX-D21, (R)-5-chloro-N^2-(5-fluoro-2-methyl-4-(piperidin-4-yl)-2,3-dihydrobenzofuran-7-yl)-N^4-(3-(isopropylsulfonyl)-1-methyl-1H-pyrazol-4-yl)pyrimidine-2,4-diamine], the GI50 at TEL-ALK-F1174L-BaF3 is 17.8 nM; at TEL-ALK-G1202R-BaF3, above 180 nM.
`Cc1cc(Nc2ncc(Cl)c(Nc3cn(C)nc3S(=O)(=O)C(C)C)n2)c2c(c1C1CCNCC1)CCC(C)O2` (stereo not drawn) [REX-D22, 5-chloro-N^2-(2,6-dimethyl-5-(piperidin-4-yl)chroman-8-yl)-N^4-(3-(isopropylsulfonyl)-1-methyl-1H-pyrazol-4-yl)pyrimidine-2,4-diamine]: the GI50 on TEL-ALK-F1174L-BaF3 is 32.6 nM; on TEL-ALK-G1202R-BaF3 it was above 180 nM.
Take `CC(C)S(=O)(=O)c1nn(C)cc1Nc1nc(Nc2cc(F)c(C3CCN(C)CC3)c3c2O[C@H](C)C3)ncc1Cl` [REX-D24, (R)-5-chloro-N^2-(5-fluoro-2-methyl-4-(1-methylpiperidin-4-yl)-2,3-dihydrobenzofuran-7-yl)-N^4-(3-(isopropylsulfonyl)-1-methyl-1H-pyrazol-4-yl)pyrimidine-2,4-diamine]: the GI50 on TEL-ALK-F1174L-BaF3 was below 10 nM; at TEL-ALK-G1202R-BaF3, above 180 nM.
With `Cc1cc(Nc2ncc(Cl)c(Nc3cn(C)nc3S(=O)(=O)C(C)C)n2)c2c(c1C1CCN(C)CC1)CCC(C)O2` (stereo not drawn) [REX-D25, 5-chloro-N^2-(2,6-dimethyl-5-(1-methylpiperidin-4-yl)chroman-8-yl)-N^4-(3-(isopropylsulfonyl)-1-methyl-1H-pyrazol-4-yl)pyrimidine-2,4-diamine], the GI50 is 11.1 nM at TEL-ALK-F1174L-BaF3 and above 180 nM on TEL-ALK-G1202R-BaF3.
The like results for `Cc1cc(Nc2nc(Nc3cn(C)nc3S(=O)(=O)C(C)C)c3sccc3n2)c2c(c1C1CCNCC1)C[C@@H](C)O2` [REX-D29, (R)—N^2-(2,5-dimethyl-4-(piperidin-4-yl)-2,3-dihydrobenzofuran-7-yl)-N^4-(3-(isopropylsulfonyl)-1-methyl-1H-pyrazol-4-yl)thieno[3,2-d]pyrimidine-2,4-diamine] were, in that order, above 500 nM and above 180 nM.
The like results for `Cc1cc(Nc2nc(Nc3cn(C)nc3S(=O)(=O)C(C)C)c3sccc3n2)c2c(c1C1CCN(C)CC1)C[C@@H](C)O2` [REX-D30, (R)—N^2-(2,5-dimethyl-4-(1-methylpiperidin-4-yl)-2,3-dihydrobenzofuran-7-yl)-N^4-(3-(isopropylsulfonyl)-1-methyl-1H-pyrazol-4-yl)thieno[3,2-d]pyrimidine-2,4-diamine] were, in that order, above 500 nM and above 180 nM.
The like results for `Cc1cc(Nc2ncc(Cl)c(Nc3cn(C)nc3S(=O)(=O)CC(C)C)n2)c2c(c1C1CCNCC1)C[C@@H](C)O2` [REX-D37, (R)-5-chloro-N^2-(2,5-dimethyl-4-(piperidin-4-yl)-2,3-dihydrobenzofuran-7-yl)-N^4-(3-(isobutylsulfonyl)-1-methyl-1H-pyrazol-4-yl)pyrimidine-2,4-diamine] were, in that order, 58.7 nM and above 180 nM.
Regarding `Cc1cc(Nc2ncc(Cl)c(Nc3cn(C)nc3S(=O)(=O)CC(C)C)n2)c2c(c1C1CCN(C)CC1)C[C@@H](C)O2` [REX-D38, (R)-5-chloro-N^2-(2,5-dimethyl-4-(1-methylpiperidin-4-yl)-2,3-dihydrobenzofuran-7-yl)-N^4-(3-(isobutylsulfonyl)-1-methyl-1H-pyrazol-4-yl)pyrimidine-2,4-diamine], the results for the GI50 at TEL-ALK-F1174L-BaF3 and at TEL-ALK-G1202R-BaF3 were below 10 nM and above 180 nM, respectively.
